Source: PMC12430443, “Discovery of Novel Benzamide-Based Sigma-1 Receptor Agonists with Enhanced Selectivity and Safety” (Molecules, 2025)
pIC50: −log10 of the molar value.

Columns and labels:
adrenergic α1a receptor = adrenergic α1a receptor (Homo sapiens, UniProt P35348); test: Off-target panel, aequorin functional assay; assay type: cell-based; conditions: 10 µM, duplicate; % inhibition of reference agonist activity
Method: (§1) Among the synthesized compounds, four derivatives were selected based on their affinity and selectivity profiles. […] The remaining compounds (2, 3, 6, and 7) were assessed for their agonist and antagonist activities across a panel of 58 receptors relevant to CNS disorders, including serotonin, adenosine, adrenergic, cannabinoid, dopamine, histamine, and muscarinic receptors. These assays were conducted at a concentration of 10 µM, in duplicate, utilizing aequorin [19], cAMP HTRF™ [20], and GTPγS binding assays, as detailed in Table 2. […] Specifically, compound 6 antagonized four receptors (5-HT2A, 5-HT2C, α1a, H1), while compound 7 was active against five receptors (5-HT2A, 5-HT3, α1a, H1, M1).
(§2) Rapidly, the tests were performed by Euroscreen (https://euroscreenfast.com/) with recombinant human G-coupled receptor-expressing cell lines using aequorin functional assays for serotonin 5-HT2A, 5-HT2B, 5-HT2C, 5-HT3, and 5-HT5A, adrenergic α1a and α1b, angiotensin AT1, cholesistokinin CCFK1, endothelin ETA, histamine H1, muscarinic M1 and M3, neurokinin NK1 and NK2, vasopressin V1a, and vasoactive intestinal peptide VPAC1 receptor analysis. Then, cAMP HTRF^TM assays were used to analyze serotonin 5-HT1A, 5-HT4E, 5-HT6, and 5-HT7, adenosine A1, A2A, and A3, adrenergic β1 and β2, cannabinoid CB1, dopamine D1, histamine H2, and neuropeptide Y NPY receptors. GTPγS^35 assays were used to analyze serotonin 5-HT1B, adrenergic α2a and α2b, dopamine D2, muscarinic M2 and M4, opioid δ, κ and µ, and somatostatine SST4 receptors.
(§3) Agonist and antagonist activities of the test compound are expressed as the percentage of the activity of the reference agonist at its EC100 concentration or the percentage of inhibition of the reference agonist activity at its EC80 concentration, respectively.
(§4) For the aequorin assays, different cell lines co-expressing the receptors were grown in specific culture media and incubated for 4 h with coelenterazine h. For agonist testing, cell suspensions were mixed with test or reference agonists in a 96-well plate. For antagonist testing, the reference agonist at its EC80 (final concentration) was injected to the mix the containing cells and the tested compound. The resulting emission of light was recorded using the Hamamatsu Functional Drug Screening System 6000 [19].

adrenergic α1b receptor = adrenergic α1b receptor (Homo sapiens, UniProt P35368); test: Off-target panel, aequorin functional assay; assay type: cell-based; conditions: 10 µM, duplicate; % inhibition of reference agonist activity
Sequence of adrenergic α1b receptor (P35368 whole entry): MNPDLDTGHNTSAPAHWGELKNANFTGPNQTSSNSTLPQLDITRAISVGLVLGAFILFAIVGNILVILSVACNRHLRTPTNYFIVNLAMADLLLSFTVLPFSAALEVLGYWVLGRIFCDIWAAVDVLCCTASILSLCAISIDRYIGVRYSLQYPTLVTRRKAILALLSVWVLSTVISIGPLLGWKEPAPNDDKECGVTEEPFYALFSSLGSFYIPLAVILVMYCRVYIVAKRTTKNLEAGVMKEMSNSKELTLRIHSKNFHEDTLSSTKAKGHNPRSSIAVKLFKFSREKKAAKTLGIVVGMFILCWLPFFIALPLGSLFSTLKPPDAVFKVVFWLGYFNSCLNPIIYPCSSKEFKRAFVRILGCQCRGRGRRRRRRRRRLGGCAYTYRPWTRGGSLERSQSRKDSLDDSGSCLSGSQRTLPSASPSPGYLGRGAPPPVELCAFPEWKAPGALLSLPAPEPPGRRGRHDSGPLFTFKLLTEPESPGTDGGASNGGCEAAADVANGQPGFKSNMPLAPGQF
Method: as §1, §2, §3, §4

serotonin 5-HT3 receptor = serotonin 5-HT3 receptor (Homo sapiens, UniProt P46098); test: Off-target panel, aequorin functional assay; assay type: cell-based; conditions: 10 µM, duplicate; % inhibition of reference agonist activity
Sequence of serotonin 5-HT3 receptor (P46098 24-478): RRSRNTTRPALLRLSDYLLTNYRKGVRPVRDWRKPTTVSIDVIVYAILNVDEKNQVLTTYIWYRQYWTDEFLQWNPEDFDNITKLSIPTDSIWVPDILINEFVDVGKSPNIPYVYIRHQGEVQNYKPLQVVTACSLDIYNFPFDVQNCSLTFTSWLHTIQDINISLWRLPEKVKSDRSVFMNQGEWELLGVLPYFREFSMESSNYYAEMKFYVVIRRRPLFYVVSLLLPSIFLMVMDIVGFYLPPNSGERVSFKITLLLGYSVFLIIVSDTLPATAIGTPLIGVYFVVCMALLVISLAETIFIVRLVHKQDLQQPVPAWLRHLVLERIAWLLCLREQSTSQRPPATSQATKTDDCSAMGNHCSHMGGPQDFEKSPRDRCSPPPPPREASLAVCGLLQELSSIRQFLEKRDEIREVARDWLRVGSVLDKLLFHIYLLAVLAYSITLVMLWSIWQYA
Method: as §1, §2, §3, §4

adrenergic α2a receptor = adrenergic α2a receptor (Homo sapiens, UniProt P08913); test: Off-target panel, GTPγS binding assay; assay type: biochemical; conditions: 10 µM, duplicate; % inhibition of reference agonist activity
Sequence of adrenergic α2a receptor (P08913 whole entry): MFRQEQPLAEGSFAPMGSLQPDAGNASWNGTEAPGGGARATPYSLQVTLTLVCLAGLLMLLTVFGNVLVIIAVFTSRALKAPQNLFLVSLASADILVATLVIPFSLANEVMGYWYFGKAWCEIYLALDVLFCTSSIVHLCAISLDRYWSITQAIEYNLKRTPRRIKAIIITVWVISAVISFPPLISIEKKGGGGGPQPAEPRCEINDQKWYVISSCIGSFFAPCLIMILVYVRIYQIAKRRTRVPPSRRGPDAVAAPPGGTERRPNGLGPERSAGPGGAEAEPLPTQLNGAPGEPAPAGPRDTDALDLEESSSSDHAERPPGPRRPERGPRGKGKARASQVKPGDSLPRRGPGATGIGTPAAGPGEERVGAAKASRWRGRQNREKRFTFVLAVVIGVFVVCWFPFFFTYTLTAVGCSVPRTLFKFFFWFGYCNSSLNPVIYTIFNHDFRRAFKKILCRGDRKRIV
Method: as §1, with “M1). […]” for “M1).”
as §3
(§5) For the GTPγS scintillation proximity assay, optimized specific conditions were determined for each receptor. […] were estimated with a PerkinElmer TopCount reader.

adrenergic α2b receptor = adrenergic α2b receptor (Homo sapiens, UniProt P18089); test: Off-target panel, GTPγS binding assay; assay type: biochemical; conditions: 10 µM, duplicate; % inhibition of reference agonist activity
Sequence of adrenergic α2b receptor (P18089 whole entry): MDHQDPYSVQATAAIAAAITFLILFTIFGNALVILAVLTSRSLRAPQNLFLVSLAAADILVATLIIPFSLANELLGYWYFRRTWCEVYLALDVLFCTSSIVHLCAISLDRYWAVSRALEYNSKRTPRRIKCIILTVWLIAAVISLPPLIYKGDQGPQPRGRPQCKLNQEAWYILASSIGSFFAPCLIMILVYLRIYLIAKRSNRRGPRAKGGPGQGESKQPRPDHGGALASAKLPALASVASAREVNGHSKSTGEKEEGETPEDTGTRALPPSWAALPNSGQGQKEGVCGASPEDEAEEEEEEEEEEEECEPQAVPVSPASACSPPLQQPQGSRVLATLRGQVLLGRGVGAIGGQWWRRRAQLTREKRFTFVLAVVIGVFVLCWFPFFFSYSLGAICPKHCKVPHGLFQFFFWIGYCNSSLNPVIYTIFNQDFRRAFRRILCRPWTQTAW
Method: as §1, with “M1). […]” for “M1).”
as §3, §5

D4.4 = D4.4 (Homo sapiens, UniProt P21917); test: Off-target panel of recombinant human receptors; assay type: cell-based; conditions: 10 µM, duplicate; % inhibition of reference agonist activity
Sequence of D4.4 (P21917 whole entry): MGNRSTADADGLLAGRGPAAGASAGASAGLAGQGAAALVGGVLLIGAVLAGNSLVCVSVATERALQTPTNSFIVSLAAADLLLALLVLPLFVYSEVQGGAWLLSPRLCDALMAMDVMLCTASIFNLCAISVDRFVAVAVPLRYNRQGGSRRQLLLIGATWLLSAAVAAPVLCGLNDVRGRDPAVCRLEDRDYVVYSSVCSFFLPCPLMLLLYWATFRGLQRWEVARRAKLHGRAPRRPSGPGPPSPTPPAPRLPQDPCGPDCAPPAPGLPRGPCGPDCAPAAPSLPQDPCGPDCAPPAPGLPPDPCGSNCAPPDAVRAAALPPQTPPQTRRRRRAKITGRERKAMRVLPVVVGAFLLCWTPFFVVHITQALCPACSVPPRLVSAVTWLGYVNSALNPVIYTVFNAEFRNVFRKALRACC
Method: as §1, §3

S1R-BiP complex = target: T1, S1R-BiP complex (Cricetulus griseus, UniProt A0A3L7I3A5); test: S1R-BiP complex dissociation, co-immunoprecipitation and BiP ELISA in CHO cells; assay type: cell-based; conditions: for Dissociation of the S1R-BiP complex (in words): 1 and 10 µM, 30 min incubation, CHO cells, n = 6
T1 construct: host or cells: CHO cells
T1 sequence (A0A3L7I3A5 1-223, one chain of several): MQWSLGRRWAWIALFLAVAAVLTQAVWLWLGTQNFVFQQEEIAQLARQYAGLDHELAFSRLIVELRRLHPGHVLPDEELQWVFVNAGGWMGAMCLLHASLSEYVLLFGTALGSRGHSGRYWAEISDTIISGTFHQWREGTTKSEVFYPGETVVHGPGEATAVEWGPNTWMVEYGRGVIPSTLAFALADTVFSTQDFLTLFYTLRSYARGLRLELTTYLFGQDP
Method: The interaction between S1R and BiP provides a reliable assay to identify S1R ligands by monitoring the dynamics of the S1R-BiP complex. In this assay, the known S1R agonist PRE-084 and antagonist NE-100 were used as controls (Figure 3).
The ability of the compounds to promote dissociation of the S1R–BiP complex was assessed by Amylgen (Montferrier-sur-Lez, France) as described in [22, 23]. CHO cells were treated with the test compounds for 30 min at 37 °C, followed by crosslinking with dithiobis(succinimidyl propionate) (DSP; Thermo Scientific, Waltham, MA, USA). Cells were lysed after 15 min on ice, and the lysates were centrifuged. Supernatants were incubated overnight at 4 °C with an anti-S1R antibody (Abcam, Cambridge, UK), and then with Protein A-Sepharose (Invitrogen). After the first centrifugation, pellets were resuspended in radioimmunoprecipitation assay (RIPA) buffer, centrifuged again, and resuspended in 2× sample buffer/bMCE buffer. Following a third centrifugation, the supernatants were analyzed for BiP immunoreactivity using an ELISA kit (SEC343Mu, USCNK Life Sciences, Wuhan, China).
Figure 3 In vitro evaluation of agonist activity of compounds 2, 3, and 6: The effects of compounds 2, 3, and 6 at 1 and 10 µM on the S1R-BiP association after 30 min of incubation were analyzed by co-immunoprecipitation using an anti-S1R antibody (red). BiP levels were quantified by ELISA. PRE-084 (white) and NE-100 (black) served as the reference agonist and antagonist, respectively (10 µM). Agonist activity was confirmed by its blockade with NE-100 (black hatching). […] Data represent the mean ± SEM from n = 6 per condition. Statistical significance was assessed using Dunnett’s test: *** p < 0.0001, * p < 0.05 vs. untreated control; ### p < 0.0001, # p < 0.05 for NE-100 blockade.

hERG channel = target: T2, hERG channel (Homo sapiens, UniProt Q12809); test: hERG automated whole-cell patch-clamp in hERG CHO-K1 cells; assay type: cell-based; conditions: for hERG inhibition IC50 / pIC50: tail current, hERG CHO-K1 cells, 0.1 to 10 µM, n = 2; for pIC50: read-out: hERG inhibition IC50
T2 construct: host or cells: CHO-K1
T2 sequence (Q12809 whole entry): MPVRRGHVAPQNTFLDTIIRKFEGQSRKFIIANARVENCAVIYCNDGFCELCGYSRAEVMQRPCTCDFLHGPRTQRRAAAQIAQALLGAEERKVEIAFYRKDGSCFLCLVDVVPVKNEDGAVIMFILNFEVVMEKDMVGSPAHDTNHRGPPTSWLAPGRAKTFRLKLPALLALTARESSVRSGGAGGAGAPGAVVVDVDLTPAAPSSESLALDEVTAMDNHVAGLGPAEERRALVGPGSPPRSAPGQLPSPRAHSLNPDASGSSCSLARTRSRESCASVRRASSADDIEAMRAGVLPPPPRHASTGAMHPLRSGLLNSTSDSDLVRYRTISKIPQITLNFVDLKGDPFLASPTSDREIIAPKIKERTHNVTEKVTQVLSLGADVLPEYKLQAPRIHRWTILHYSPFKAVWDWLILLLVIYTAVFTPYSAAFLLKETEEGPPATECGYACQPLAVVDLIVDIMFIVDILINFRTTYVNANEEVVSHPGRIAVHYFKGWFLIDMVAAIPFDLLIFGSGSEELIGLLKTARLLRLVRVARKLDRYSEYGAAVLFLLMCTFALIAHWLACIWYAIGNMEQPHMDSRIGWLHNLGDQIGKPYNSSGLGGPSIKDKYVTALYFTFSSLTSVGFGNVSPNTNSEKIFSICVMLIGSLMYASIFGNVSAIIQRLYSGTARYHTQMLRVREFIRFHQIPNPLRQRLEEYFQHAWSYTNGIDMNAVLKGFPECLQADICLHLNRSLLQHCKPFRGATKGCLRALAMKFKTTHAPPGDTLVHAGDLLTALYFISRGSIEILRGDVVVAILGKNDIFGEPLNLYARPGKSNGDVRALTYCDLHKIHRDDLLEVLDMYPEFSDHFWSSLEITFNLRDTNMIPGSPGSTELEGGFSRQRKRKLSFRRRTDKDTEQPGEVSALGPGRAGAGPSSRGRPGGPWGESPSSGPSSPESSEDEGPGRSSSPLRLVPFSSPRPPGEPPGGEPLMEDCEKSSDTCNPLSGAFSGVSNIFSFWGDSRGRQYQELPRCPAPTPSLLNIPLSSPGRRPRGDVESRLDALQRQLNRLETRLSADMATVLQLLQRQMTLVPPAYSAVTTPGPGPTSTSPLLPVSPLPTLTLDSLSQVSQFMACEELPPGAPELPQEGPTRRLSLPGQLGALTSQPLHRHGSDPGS
Method: Cardiac toxicity is a leading cause of drug development failure. Early safety profiling includes evaluation of the potassium voltage-gated channel subfamily H member 2 (KCNH2 or hERG) channel, the only in vitro assay mandated by regulatory agencies to predict proarrhythmic risk. […] Importantly, an IC50 (hERG)/Ki (σ1) ratio exceeding 100 is advised for cardiac safety; all compounds met this criterion.
Cardiotoxicity analysis was performed by Eurofins Cerep (Poitiers, France) as described in [41]. Rapidly, hERG CHO-K1 cells were used to perform automated whole-cell patch-clamp. Compounds were evaluated in duplicate from 0.1 to 10 µM. The degree of inhibition (%) was determined by measuring the tail current amplitude, which was induced by a one-second test pulse to −40 mV after a two-second pulse to +20 mV, before and after drug incubation for 5 min at room temperature. After normalization, activities were expressed as the % inhibition of tail current. […] The concentration–response relationship of each compound was constructed from the percentage reductions in current amplitude by sequential concentrations.

histamine H1 receptor = histamine H1 receptor (Homo sapiens, UniProt P35367); test: Off-target panel, aequorin functional assay; assay type: cell-based; conditions: 10 µM
Sequence of histamine H1 receptor (P35367 whole entry): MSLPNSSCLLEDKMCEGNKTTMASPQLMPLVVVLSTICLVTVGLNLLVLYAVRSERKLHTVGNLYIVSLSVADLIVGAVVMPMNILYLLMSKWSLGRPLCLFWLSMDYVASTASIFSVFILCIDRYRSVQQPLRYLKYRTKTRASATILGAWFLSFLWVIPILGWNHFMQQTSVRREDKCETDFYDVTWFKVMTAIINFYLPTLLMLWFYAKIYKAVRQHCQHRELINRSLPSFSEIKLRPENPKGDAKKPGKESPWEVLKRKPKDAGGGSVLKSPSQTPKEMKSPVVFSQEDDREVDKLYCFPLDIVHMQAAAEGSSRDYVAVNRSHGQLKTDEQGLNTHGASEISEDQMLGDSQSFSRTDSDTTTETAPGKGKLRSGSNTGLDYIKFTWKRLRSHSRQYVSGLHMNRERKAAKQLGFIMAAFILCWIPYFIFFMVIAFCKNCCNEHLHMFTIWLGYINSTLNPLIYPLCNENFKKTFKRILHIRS
Method: as §1, §2, §3, §4

Sequence of adrenergic α1a receptor (P35348 whole entry): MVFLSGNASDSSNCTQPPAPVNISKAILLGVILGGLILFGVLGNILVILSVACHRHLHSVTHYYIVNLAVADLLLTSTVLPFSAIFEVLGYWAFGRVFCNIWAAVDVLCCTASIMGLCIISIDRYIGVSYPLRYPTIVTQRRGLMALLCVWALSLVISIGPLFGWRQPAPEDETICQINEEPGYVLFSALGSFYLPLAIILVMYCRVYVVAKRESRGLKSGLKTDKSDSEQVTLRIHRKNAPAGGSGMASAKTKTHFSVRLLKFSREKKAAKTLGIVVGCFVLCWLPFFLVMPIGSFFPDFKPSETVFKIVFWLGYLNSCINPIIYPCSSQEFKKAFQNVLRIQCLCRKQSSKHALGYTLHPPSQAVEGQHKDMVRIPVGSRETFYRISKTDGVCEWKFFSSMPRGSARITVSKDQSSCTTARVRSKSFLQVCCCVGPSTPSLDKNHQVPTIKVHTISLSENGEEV

SMILES | α1a [b] antagonist activity (adrenergic α1a receptor) [%] | α1b [b] antagonist activity (adrenergic α1b receptor) [%] | 5-HT3 [b] antagonist activity (serotonin 5-HT3 receptor) [%] | α2a [b] antagonist activity (adrenergic α2a receptor) [%] | α2b [b] antagonist activity (adrenergic α2b receptor) [%] | D4.4 [b] antagonist activity (D4.4) [%] | Dissociation of the S1R-BiP complex (in words) (S1R-BiP complex) | Dissociation of S1R-BiP complex in the presence of NE-100 (in words) (S1R-BiP complex; co-treatment with NE-100 (10 µM)) | hERG inhibition IC50 (hERG channel) | pIC50 (hERG channel) | H1 antagonist activity (in words) (histamine H1 receptor) | IC50 (hERG)/Ki (σ1) (hERG channel; ratio)
CN(CCC(=O)NCc1cccc(Cl)c1)Cc1ccccc1 [Compound 2, 3-(Benzylmethylamino)-N-(3-chlorobenzyl)propanamide] | 64 | 70 | 68 | 61 | 59 | 64 | significant, dose-dependent dissociation | completely inhibited | micromolar range | 5.17 | – | –
CN(CCC(=O)NCc1ccc(C#N)cc1)Cc1ccccc1 [Compound 6, 3-(Benzylmethylamino)-N-(4-cyanobenzyl)propanamide] | – | – | – | – | – | – | slight and less significant reduction | – | micromolar range | 6.10 | antagonized | 143
